One assay concerns the target FYN (Homo sapiens (Human), UniProt P06241). As to the kind of experiment: Radiometric 33PanQinase assay (FlashPlate-based Protein Kinase Assay). It is filed as biochemical. Conditions: at app. ATP Km, read-out: IC50 Activity Levels Against FYN Kinase: FYN. The source says: 5. Radiometric ^33PanQinase^R Assay:
This assay referred to as FlashPlate-based Protein Kinase Assay uses recombinant protein kinase and ATP concentration corresponding to the apparent ATP-Km of the respective kinase. Testing of inhibitors is done at app. ATP Km.

For a further assay, the target named is AurA (Homo sapiens (Human), UniProt O14965). As to the kind of experiment: Radioisotope filter binding assay. Particulars: read-out: IC50 Activity Levels Against RTKs (c-Kit, RET, HER4) and AurA, CHK2 Kinases: AurA. It is filed as biochemical. The procedure, abridged: (§1)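 Direct radiometric format with unmodified substrate and no coupling enzymes. Test compound was incubated with enzyme for 20 min before [γ-33P]ATP addition, and phosphorylation proceeded 2 h at room temperature before P81 filter capture.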

For a further assay, the target named is ERK2 (Homo sapiens (Human), UniProt P28482). As to the kind of experiment: KINOMEscan competition binding assay (Kd). Particulars: read-out: Kd Values Against MAPK Pathway Kinases: ERK2.
Chain of ERK2 (P28482 whole entry, canonical isoform): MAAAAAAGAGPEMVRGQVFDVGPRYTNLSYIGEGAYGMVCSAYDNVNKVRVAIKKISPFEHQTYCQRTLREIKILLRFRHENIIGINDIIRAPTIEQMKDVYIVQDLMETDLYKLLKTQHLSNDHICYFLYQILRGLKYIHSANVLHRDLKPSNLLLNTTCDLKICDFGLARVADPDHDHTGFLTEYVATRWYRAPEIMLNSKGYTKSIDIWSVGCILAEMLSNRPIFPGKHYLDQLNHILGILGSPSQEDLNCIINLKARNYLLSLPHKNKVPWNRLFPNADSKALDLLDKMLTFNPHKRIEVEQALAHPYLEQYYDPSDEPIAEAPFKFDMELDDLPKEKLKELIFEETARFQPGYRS
Another assay addresses MEK2 (Homo sapiens (Human), UniProt P36507). As to the kind of experiment: KINOMEscan competition binding assay (Kd). Conditions: read-out: Kd Values Against MEK Kinases Isoforms: MEK2.
In another assay the target is MEK3 (Homo sapiens (Human), UniProt P46734). As to the kind of experiment: KINOMEscan competition binding assay (Kd). Conditions: read-out: Kd Values Against MEK Kinases Isoforms: MEK3.
Chain of MEK3 (P46734 whole entry, canonical isoform): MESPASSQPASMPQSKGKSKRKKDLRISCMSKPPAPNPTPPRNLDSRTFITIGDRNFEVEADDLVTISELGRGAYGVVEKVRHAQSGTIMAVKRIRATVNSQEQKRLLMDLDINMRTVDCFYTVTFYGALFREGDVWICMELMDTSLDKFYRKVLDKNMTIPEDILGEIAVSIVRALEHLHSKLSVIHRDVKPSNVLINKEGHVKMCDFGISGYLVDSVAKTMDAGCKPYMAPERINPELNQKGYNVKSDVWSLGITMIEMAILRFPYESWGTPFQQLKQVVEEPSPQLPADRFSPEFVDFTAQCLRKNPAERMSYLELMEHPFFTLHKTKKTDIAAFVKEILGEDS
In the next assay the target is MEK7 (Homo sapiens (Human), UniProt O14733). As to the kind of experiment: KINOMEscan competition binding assay (Kd). Particulars: read-out: Kd Values Against MEK Kinases Isoforms: MEK7.
Chain of MEK7 (O14733 whole entry, canonical isoform): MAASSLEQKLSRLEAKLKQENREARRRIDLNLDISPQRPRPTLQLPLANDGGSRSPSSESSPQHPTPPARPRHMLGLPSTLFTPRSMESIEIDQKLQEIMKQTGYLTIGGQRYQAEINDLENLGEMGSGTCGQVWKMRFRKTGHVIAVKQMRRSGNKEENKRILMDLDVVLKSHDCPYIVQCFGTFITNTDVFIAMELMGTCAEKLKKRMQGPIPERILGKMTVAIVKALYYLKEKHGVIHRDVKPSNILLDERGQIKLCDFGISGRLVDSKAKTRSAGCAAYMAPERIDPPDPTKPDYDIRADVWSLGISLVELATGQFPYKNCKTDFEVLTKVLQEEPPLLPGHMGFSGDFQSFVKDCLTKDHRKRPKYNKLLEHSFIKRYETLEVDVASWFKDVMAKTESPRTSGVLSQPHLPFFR
For the next assay, the target named is MEK4 (Homo sapiens (Human), UniProt P45985). As to the kind of experiment: KINOMEscan competition binding assay (Kd). Particulars: read-out: Kd Values Against MEK Kinases Isoforms: MEK4.
Another assay has as its target FGR (Homo sapiens (Human), UniProt P09769). As to the kind of experiment: Rabbit reticulocyte lysate assay (KinaseSeeker competition binding). Particulars: read-out: IC50 Activity Levels Against SRC Family Kinases: FGR. Here is the method: (§2) 1. Rabbit Reticulocyte Lysate Assay Design:
(§3) KinaseSeeker is a homogeneous competition binding assay where the displacement of an active site dependent probe by an inhibitor is measured by a change in luminescence signal. Luminescence readout translates into a highly sensitive and robust assay with low background and minimal interference from test compounds.
(§4) 10 mM stock solutions of test compounds were serially diluted in DMSO to make assay stocks. Prior to initiating IC50 determinations, the test compounds were evaluated for false positive against split-luciferase.
(§5) Each test compound was screened in duplicate against target kinase at 7 different concentrations. For kinase assays, Cfluc-kinase was translated along with Fos-Nfluc using a cell-free system (rabbit reticulocyte lysate) at 30° C. for 90 min. 24 uL aliquot of this lysate containing either 1 uL of DMSO (for no-inhibitor control) or compound solution in DMSO was incubated for 30 minutes at room temperature followed by 1 hour in presence of a kinase specific probe. 80 uL of luciferin assay reagent was added to each solution and luminescence was immediately measured on a luminometer.
(§6) The % Inhibition and % Activity Remaining was calculated using the following equation: % Inhibition=[(ALUControl−ALUSample)/ALUControl]×100 % Activity Remaining=100−% Inhibition
(§7) The % Activity was plotted against compound concentration and the IC50 was determined for each compound using a 7-point curve (Jester, B. W.; et. al. J. Am. Chem. Soc. 2010, 132, 11727-11735. Jester, B. W., et. al. J. Med. Chem. 2012, 55, 1526-1537). Biological activity of representative compounds of the disclosure are described in Table 5.

The target in another assay is YES1 (Homo sapiens (Human), UniProt P07947). Described as above. Conditions: read-out: IC50 Activity Levels Against SRC Family Kinases: YES1. Here is the method:
as §2, §3, §4, §5, §6, §7

Another assay concerns the target ITK (Homo sapiens (Human), UniProt Q08881). As to the kind of experiment: Radioisotope filter binding assay. Conditions: read-out: IC50 Activity Levels Against Representative TEC Family Kinases: ITK. The assay is classed as biochemical. The method in brief:
as §1

The next assay has as its target CSK (Homo sapiens (Human), UniProt P41240). As to the kind of experiment: Radioisotope filter binding assay. The assay is classed as biochemical. Conditions: read-out: IC50 Activity Levels Against SRC Family Kinases: CSK. The procedure, abridged: as §1
The target of the next assay is FRK (Homo sapiens (Human), UniProt P42685). As to the kind of experiment: Radioisotope filter binding assay. It is filed as biochemical. Conditions: read-out: IC50 Activity Levels Against FRK Family Kinases: FRK. The method in brief: as §1
Chain of FRK (P42685 whole entry): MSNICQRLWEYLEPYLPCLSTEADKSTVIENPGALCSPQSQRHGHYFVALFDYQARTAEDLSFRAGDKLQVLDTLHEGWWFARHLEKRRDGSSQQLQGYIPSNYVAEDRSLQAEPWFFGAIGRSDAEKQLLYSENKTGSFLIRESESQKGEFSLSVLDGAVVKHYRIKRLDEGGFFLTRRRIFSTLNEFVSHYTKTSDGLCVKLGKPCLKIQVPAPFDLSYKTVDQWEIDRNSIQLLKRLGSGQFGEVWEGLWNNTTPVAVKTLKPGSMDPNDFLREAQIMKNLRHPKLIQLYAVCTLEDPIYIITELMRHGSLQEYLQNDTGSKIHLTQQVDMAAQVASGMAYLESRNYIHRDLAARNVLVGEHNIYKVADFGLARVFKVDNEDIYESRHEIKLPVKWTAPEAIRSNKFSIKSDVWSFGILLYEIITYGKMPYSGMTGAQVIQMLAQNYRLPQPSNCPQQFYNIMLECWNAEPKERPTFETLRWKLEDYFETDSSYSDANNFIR

The text below walks through data of US10844038B2, “1,2-dithiolane compounds useful in neuroprotection, autoimmune and cancer diseases and conditions” (SABILA BIOSCIENCES LLC, priority 2016, dated 2020).

The structures appear in SMILES notation.

Chain of YES1 (P07947 whole entry): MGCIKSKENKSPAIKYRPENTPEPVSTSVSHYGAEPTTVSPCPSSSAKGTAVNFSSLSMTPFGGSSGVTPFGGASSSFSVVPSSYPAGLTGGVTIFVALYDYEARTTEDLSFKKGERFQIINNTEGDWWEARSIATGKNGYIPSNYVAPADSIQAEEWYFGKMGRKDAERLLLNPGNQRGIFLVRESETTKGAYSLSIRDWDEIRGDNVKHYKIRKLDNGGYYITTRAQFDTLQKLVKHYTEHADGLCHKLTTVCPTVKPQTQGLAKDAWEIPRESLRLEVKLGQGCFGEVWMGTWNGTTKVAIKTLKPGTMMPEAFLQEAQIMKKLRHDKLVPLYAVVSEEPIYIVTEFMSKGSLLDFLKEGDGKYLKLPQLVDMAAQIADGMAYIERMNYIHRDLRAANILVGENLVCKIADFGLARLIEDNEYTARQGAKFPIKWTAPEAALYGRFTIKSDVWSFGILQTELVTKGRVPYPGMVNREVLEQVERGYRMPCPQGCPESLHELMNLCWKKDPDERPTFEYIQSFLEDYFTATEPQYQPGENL
Chain of FGR (P09769 whole entry): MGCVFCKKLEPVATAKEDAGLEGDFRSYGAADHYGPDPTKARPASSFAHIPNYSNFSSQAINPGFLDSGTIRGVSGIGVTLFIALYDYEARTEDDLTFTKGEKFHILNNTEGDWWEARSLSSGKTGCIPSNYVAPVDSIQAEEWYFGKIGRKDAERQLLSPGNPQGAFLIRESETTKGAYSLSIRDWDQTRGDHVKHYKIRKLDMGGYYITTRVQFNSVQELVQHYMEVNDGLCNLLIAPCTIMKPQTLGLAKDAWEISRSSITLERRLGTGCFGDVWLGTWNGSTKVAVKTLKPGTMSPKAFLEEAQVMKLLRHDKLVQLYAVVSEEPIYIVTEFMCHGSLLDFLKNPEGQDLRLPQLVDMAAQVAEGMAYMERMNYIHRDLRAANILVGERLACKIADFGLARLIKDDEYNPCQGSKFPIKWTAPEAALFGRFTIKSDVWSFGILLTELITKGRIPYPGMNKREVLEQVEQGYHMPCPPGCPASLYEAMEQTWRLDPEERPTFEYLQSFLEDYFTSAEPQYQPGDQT
Chain of FYN (P06241 whole entry): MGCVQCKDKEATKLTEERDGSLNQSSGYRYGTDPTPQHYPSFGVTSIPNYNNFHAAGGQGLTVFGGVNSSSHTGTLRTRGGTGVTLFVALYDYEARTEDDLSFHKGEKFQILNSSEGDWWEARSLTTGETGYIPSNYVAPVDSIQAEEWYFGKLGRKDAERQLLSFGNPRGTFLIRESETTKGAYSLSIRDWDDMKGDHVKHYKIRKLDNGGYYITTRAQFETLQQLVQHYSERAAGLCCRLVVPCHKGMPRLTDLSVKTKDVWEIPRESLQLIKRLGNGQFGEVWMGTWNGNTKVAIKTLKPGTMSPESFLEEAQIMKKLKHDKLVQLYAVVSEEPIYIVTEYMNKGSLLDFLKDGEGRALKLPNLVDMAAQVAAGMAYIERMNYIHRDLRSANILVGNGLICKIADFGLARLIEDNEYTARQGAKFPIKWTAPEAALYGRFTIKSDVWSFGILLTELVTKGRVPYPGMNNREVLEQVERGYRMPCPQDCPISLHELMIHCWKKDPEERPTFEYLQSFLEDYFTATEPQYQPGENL
Chain of MEK2 (P36507 whole entry, canonical isoform): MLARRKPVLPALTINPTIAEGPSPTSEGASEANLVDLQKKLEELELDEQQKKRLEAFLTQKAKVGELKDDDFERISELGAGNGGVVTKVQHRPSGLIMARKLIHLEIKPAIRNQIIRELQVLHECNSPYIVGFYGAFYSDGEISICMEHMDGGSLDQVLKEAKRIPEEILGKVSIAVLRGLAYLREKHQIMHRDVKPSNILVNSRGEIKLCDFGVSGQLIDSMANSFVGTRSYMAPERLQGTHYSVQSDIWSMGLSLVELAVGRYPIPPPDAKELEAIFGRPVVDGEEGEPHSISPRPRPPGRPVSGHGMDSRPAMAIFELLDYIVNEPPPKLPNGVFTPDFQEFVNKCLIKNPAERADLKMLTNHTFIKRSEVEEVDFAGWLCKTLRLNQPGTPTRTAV
Chain of ITK (Q08881 whole entry): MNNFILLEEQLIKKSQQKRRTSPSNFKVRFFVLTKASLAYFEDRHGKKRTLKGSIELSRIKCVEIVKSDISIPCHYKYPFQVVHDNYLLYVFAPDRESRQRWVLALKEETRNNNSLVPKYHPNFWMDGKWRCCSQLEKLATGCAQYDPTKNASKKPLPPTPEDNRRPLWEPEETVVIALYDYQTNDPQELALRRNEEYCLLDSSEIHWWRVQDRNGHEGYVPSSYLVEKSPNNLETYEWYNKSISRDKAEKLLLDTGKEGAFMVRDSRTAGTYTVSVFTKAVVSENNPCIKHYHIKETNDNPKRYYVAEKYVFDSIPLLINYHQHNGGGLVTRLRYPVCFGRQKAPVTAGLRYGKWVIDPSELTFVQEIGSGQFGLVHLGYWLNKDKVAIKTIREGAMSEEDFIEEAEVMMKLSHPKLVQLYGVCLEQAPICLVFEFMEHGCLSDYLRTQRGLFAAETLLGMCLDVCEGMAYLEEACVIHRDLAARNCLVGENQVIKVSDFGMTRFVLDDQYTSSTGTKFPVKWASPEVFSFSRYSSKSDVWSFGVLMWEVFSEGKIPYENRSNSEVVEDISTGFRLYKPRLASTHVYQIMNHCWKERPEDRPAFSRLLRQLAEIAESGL
Chain of CSK (P41240 whole entry): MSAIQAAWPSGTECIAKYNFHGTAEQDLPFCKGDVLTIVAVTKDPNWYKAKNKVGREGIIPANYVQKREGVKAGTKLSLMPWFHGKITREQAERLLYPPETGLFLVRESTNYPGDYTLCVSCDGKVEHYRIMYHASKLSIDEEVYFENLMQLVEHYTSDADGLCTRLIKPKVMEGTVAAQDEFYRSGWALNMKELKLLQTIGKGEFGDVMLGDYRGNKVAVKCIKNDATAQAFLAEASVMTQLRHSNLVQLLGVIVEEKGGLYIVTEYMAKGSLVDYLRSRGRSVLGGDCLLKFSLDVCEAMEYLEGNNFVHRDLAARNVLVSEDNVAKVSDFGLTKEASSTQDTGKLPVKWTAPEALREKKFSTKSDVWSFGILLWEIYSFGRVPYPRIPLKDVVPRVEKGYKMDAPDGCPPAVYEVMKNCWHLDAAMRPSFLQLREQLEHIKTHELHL

With `Nc1ncnc2c1c(-c1ccc(Oc3ccccc3)cc1)nn2C[C@H]1SSC[C@H]1O` [46 B.], the 50% inhibitory concentration (IC50) lay in the range of 5 to 99 nM at FYN, 100 to 999 nM on AurA, 100 to 999 nM at FGR and 5 to 99 nM on YES1. The Kd on ERK2 was in the range of 1000 to 10000 nM; at MEK2, 100 to 999 nM; at MEK3, 1000 to 10000 nM; on MEK7, 1000 to 10000 nM; on MEK4 it was 1000 to 10000 nM.

As for `Nc1ncnc2c1c(-c1ccc(Oc3ccccc3)cc1)nn2C[C@@H]1SSC[C@@H]1O` [46 A.], the equilibrium dissociation constant (Kd) at MEK7 lay within 1000 to 10000 nM.

For `Nc1ncnc2c1c(-c1ccc(Oc3ccccc3)cc1)nn2C[C@H]1SSC[C@@H]1O` [43 B.], the half-inhibitory concentration (IC50) is 5 to 99 nM on FYN; 1000 to 10000 nM at ITK; 5 to 99 nM at CSK; 5 to 99 nM at FRK; 100 to 999 nM on FGR; 100 to 999 nM at YES1.

In general, IC50 refers to the concentration that inhibits the measured activity by half. The term Kd denotes the equilibrium constant for the complex coming apart.
